Patent US8633200B2, “Inhibitors of human immunodeficiency virus replication” (priority 2010, dated 2014)
Where a name gives a salt, the structure may show the parent alone.

Test system: recombinant NL-Rluc virus (NL4-3 with Renilla Luciferase gene) in MT-2 cells
Experiment: Inhibition of HIV replication (NL-Rluc luciferase reporter virus, MT-2 cells)
Type: cell-based, human immunodeficiency virus (HIV)
Settings: NL43, 120 h, read-out: Activity

SMILES | EC50
Cc1nc2c(-c3cccc(Cl)c3)cnn2c(-c2cc(F)c3c(c2C)CCCO3)c1C(OC(C)(C)C)C(=O)O (stereo not drawn) [Example 132] | 0.1 to 1 µM
Cc1nc2cc(-c3cccc(OCc4ccc(F)cc4)c3)nn2c(-c2cc(F)c3c(c2C)CCCO3)c1C(OC(C)(C)C)C(=O)O (stereo not drawn) [Example 101, 2-tert-Butoxy-2-(7-(8-fluoro-5-methylchroman-6-yl)-2-(3-(4-fluorobenzyloxy)phenyl)-5-methylpyrazolo[1,5-a]pyrimidin-6-yl)acetic acid, TFA salt] | < 0.1 µM
Cc1nc2c(-c3ccccc3)cnn2c(-c2cc(F)c3c(c2C)CCCO3)c1C(OC(C)(C)C)C(=O)O (stereo not drawn) [Example 44, 2-tert-Butoxy-2-(7-(8-fluoro-5-methylchroman-6-yl)-5-methyl-3-phenylpyrazolo[1,5-a]pyrimidin-6-yl)acetic acid, TFA salt] | > 1 µM
COc1ccncc1-c1cccc(-c2cc3nc(C)c([C@H](OC(C)(C)C)C(=O)O)c(-c4cc(F)c5c(c4C)CCCO5)n3n2)c1 [Example 117, (2S)-2-(tert-Butoxy)-2-(7-(8-fluoro-5-methylchroman-6-yl)-2-(3-(4-methoxypyridin-3-yl)phenyl)-5-methylpyrazolo[1,5-a]pyrimidin-6-yl)acetic acid] | < 0.1 µM
Cc1nc2cc(-c3ccc4c(c3)CCCC4)nn2c(-c2ccc3c(c2)CCCO3)c1[C@H](OC(C)(C)C)C(=O)O [Example 151, (S)-2-(tert-Butoxy)-2-(7-(chroman-6-yl)-5-methyl-2-(5,6,7,8-tetrahydronaphthalen-2-yl)pyrazolo[1,5-a]pyrimidin-6-yl)acetic acid] | < 0.1 µM
Cc1ccccc1-c1cc2nc(C)c(C(OC(C)(C)C)C(=O)O)c(-c3cc(F)c4c(c3C)CCCO4)n2n1 (stereo not drawn) [Example 98, 2-tert-Butoxy-2-(7-(8-fluoro-5-methylchroman-6-yl)-5-methyl-2-o-tolylpyrazolo[1,5-a]pyrimidin-6-yl)acetic acid, TFA salt] | > 1 µM
COc1ccc(-c2cccc(-c3cc4nc(C)c([C@H](OC(C)(C)C)C(=O)O)c(-c5cc(F)c6c(c5C)CCCO6)n4n3)c2)cc1 [Example 127, (2S)-2-(tert-Butoxy)-2-(7-(8-fluoro-5-methylchroman-6-yl)-2-(4′-methoxy-[1,1′-biphenyl]-3-yl)-5-methylpyrazolo[1,5-a]pyrimidin-6-yl)acetic acid, TFA salt] | < 0.1 µM
Cc1nc2cc(-c3ccccc3)nn2c(-c2ccc3ncccc3c2)c1C(OC(C)(C)C)C(=O)O (stereo not drawn) [Example 50] | > 1 µM
Cc1nc2cc(-c3cccc(-c4ccccc4)c3)nn2c(-c2cc(F)c3c(c2C)CCCO3)c1[C@H](OC(C)(C)C)C(=O)O [Example 125, (2S)-2-(2-([1,1′-Biphenyl]-3-yl)-7-(8-fluoro-5-methylchroman-6-yl)-5-methylpyrazolo[1,5-a]pyrimidin-6-yl)-2-(tert-butoxy)acetic acid] | < 0.1 µM
Cc1nc2cc(-c3ccc4c(c3)CCCC4)nn2c(-c2ccc(F)cc2)c1[C@H](OC(C)(C)C)C(=O)O [Example 152, (S)-2-(tert-Butoxy)-2-(7-(4-fluorophenyl)-5-methyl-2-(5,6,7,8-tetrahydronaphthalen-2-yl)pyrazolo[1,5-a]pyrimidin-6-yl)acetic acid] | > 1 µM
COc1cccc(-c2c(C(OC(C)(C)C)C(=O)O)c(C)nc3cc(-c4ccccc4)nn23)c1 (stereo not drawn) [Example 8] | > 1 µM
Cc1nc2cc(-c3cccc(-c4ccc(F)cc4)c3)nn2c(-c2cc(F)c3c(c2C)CCCO3)c1[C@H](OC(C)(C)C)C(=O)O [Example 124, (2S)-2-(tert-Butoxy)-2-(7-(8-fluoro-5-methylchroman-6-yl)-2-(4′-fluoro-[1,1′-biphenyl]-3-yl)-5-methylpyrazolo[1,5-a]pyrimidin-6-yl)acetic acid, TFA salt] | < 0.1 µM
Cc1nc2cc(-c3ccccc3)nn2c(-c2ccc(Cl)c(F)c2)c1C(OC(C)(C)C)C(=O)O (stereo not drawn) [Example 86] | > 1 µM
Cc1nc2cc(-c3ccccc3)nn2c(-c2ccc(F)cc2F)c1C(OC(C)(C)C)C(=O)O (stereo not drawn) [Example 18] | > 1 µM
Cc1nc2cc(-c3cccc(Cl)c3)nn2c(CC(C)C)c1[C@H](OC(C)(C)C)C(=O)O [Example 146, (S)-2-(tert-Butoxy)-2-(2-(3-chlorophenyl)-7-isobutyl-5-methylpyrazolo[1,5-a]pyrimidin-6-yl)acetic acid] | > 1 µM
Cc1nc2cc(-c3ccccc3)nn2c(-c2ccc(F)cc2Cl)c1C(OC(C)(C)C)C(=O)O (stereo not drawn) [Example 90] | > 1 µM
Cc1nc2cc(-c3ccccc3)nn2c(-c2cc3ccccc3s2)c1C(OC(C)(C)C)C(=O)O (stereo not drawn) [Example 67] | > 1 µM

SMILES | EC50
Cc1nc2cc(-c3ccc(Cl)cc3)nn2c(-c2cc(F)c3c(c2C)CCCO3)c1C(OC(C)(C)C)C(=O)O (stereo not drawn) [Example 96, 2-tert-Butoxy-2-(2-(4-chlorophenyl)-7-(8-fluoro-5-methylchroman-6-yl)-5-methylpyrazolo[1,5-a]pyrimidin-6-yl)acetic acid, TFA salt] | 0.1 to 1 µM
Cc1nc2cc(-c3cccc(OCc4cccc(Cl)c4)c3)nn2c(-c2cc(F)c3c(c2C)CCCO3)c1C(OC(C)(C)C)C(=O)O (stereo not drawn) [Example 104, 2-tert-Butoxy-2-(2-(3-(3-chlorobenzyloxy)phenyl)-7-(8-fluoro-5-methylchroman-6-yl)-5-methylpyrazolo[1,5-a]pyrimidin-6-yl)acetic acid, TFA salt] | < 0.1 µM
Cc1ccccc1-c1c(C(OC(C)(C)C)C(=O)O)c(C)nc2cc(-c3ccccc3)nn12 (stereo not drawn) [Example 14] | > 1 µM
Cc1nc2cc(-c3cccc(C(=O)NCc4ccccc4)c3)nn2c(-c2cc(F)c3c(c2C)CCCO3)c1C(OC(C)(C)C)C(=O)O (stereo not drawn) [Example 111, 2-(2-(3-(Benzylcarbamoyl)phenyl)-7-(8-fluoro-5-methylchroman-6-yl)-5-methylpyrazolo[1,5-a]pyrimidin-6-yl)-2-tert-butoxyacetic acid, TFA salt] | 0.1 to 1 µM
Cc1nc2c(-c3ccc4c(cnn4C)c3)c(-c3ccccc3)nn2c(-c2cc(F)c3c(c2C)CCCO3)c1[C@H](OC(C)(C)C)C(=O)O [Example 142, (2S)-2-(tert-Butoxy)-2-(7-(8-fluoro-5-methylchroman-6-yl)-5-methyl-3-(1-methyl-1H-indazol-5-yl)-2-phenylpyrazolo[1,5-a]pyrimidin-6-yl)acetic acid] | 0.1 to 1 µM
Cc1nc2cc(-c3ccccc3)nn2c(-c2ccc(F)cc2)c1C(OC(C)(C)C)C(=O)O (stereo not drawn) [Example 23] | > 1 µM
Cc1nc2cc(-c3cccc(OCc4ccc(Cl)cc4)c3)nn2c(-c2cc(F)c3c(c2C)CCCO3)c1C(OC(C)(C)C)C(=O)O (stereo not drawn) [Example 106, 2-tert-Butoxy-2-(2-(3-(4-chlorobenzyloxy)phenyl)-7-(8-fluoro-5-methylchroman-6-yl)-5-methylpyrazolo[1,5-a]pyrimidin-6-yl)acetic acid, TFA salt] | < 0.1 µM
Cc1nc2cc(-c3cccc(C(=O)Nc4ccccc4)c3)nn2c(-c2cc(F)c3c(c2C)CCCO3)c1C(OC(C)(C)C)C(=O)O (stereo not drawn) [Example 110, 2-tert-Butoxy-2-(7-(8-fluoro-5-methylchroman-6-yl)-5-methyl-2-(3-(phenylcarbamoyl)phenyl)pyrazolo[1,5-a]pyrimidin-6-yl)acetic acid, TFA salt] | 0.1 to 1 µM
Cc1nc2cc(-c3ccccc3)nn2c(-c2cc(F)c3c(c2C)CCCO3)c1[C@H](OC(C)(C)C)C(=O)O [Example 39, (2S)-2-tert-butoxy-2-(7-(8-fluoro-5-methylchroman-6-yl)-5-methyl-2-phenylpyrazolo[1,5-a]pyrimidin-6-yl)acetic acid] | < 0.1 µM
Cc1ncccc1-c1cccc(-c2cc3nc(C)c([C@H](OC(C)(C)C)C(=O)O)c(-c4cc(F)c5c(c4C)CCCO5)n3n2)c1 [Example 167, (2S)-2-(tert-Butoxy)-2-(7-(8-fluoro-5-methylchroman-6-yl)-5-methyl-2-(3-(2-methylpyridin-3-yl)phenyl)pyrazolo[1,5-a]pyrimidin-6-yl)acetic acid] | < 0.1 µM
Cc1ccc(F)c(-c2c(C(OC(C)(C)C)C(=O)O)c(C)nc3cc(-c4ccccc4)nn23)c1 (stereo not drawn) [Example 62] | > 1 µM
Cc1nc2c(-c3cccc(-c4ccncc4)c3)cnn2c(-c2cc(F)c3c(c2C)CCCO3)c1C(OC(C)(C)C)C(=O)O (stereo not drawn) [Example 135, 2-(tert-Butoxy)-2-(7-(8-fluoro-5-methylchroman-6-yl)-5-methyl-3-(3-(pyridin-4-yl)phenyl)pyrazolo[1,5-a]pyrimidin-6-yl)acetic acid] | 0.1 to 1 µM
Cc1nc2cc(-c3ccccc3)nn2c(-c2ccc3ccccc3c2)c1C(OC(C)(C)C)C(=O)O (stereo not drawn) [Example 5] | > 1 µM
Cc1nc2c(-c3ccc(F)cc3)c(-c3ccccc3)nn2c(-c2cc(F)c3c(c2C)CCCO3)c1C(OC(C)(C)C)C(=O)O (stereo not drawn) [Example 136, 2-(tert-Butoxy)-2-(7-(8-fluoro-5-methylchroman-6-yl)-3-(4-fluorophenyl)-5-methyl-2-phenylpyrazolo[1,5-a]pyrimidin-6-yl)acetic acid] | > 1 µM
Cc1nc2c(C)c(-c3cccc(-c4cc(F)c5c(c4C)CCCO5)c3)nn2c(-c2cc(F)c3c(c2C)CCCO3)c1[C@H](OC(C)(C)C)C(=O)O [Example 159, (2S)-2-(tert-Butoxy)-2-(7-(8-fluoro-5-methylchroman-6-yl)-2-(3-(8-fluoro-5-methylchroman-6-yl)phenyl)-3,5-dimethylpyrazolo[1,5-a]pyrimidin-6-yl)acetic acid] | < 0.1 µM
Cc1nc2cc(-c3ccccc3)nn2c(-c2cccnc2)c1C(OC(C)(C)C)C(=O)O (stereo not drawn) [Example 6] | > 1 µM
Cc1nc2cc(-c3cccc(-c4cncc(F)c4)c3)nn2c(-c2cc(F)c3c(c2C)CCCO3)c1[C@H](OC(C)(C)C)C(=O)O [Example 171, (2S)-2-(tert-Butoxy)-2-(7-(8-fluoro-5-methylchroman-6-yl)-2-(3-(5-fluoropyridin-3-yl)phenyl)-5-methylpyrazolo[1,5-a]pyrimidin-6-yl)acetic acid] | < 0.1 µM

Same assay, conditions: NL43, 120 h, read-out: EC50 μM

SMILES | EC50
Cc1nc2c(-c3ccccc3)cnn2c(-c2cc(F)c3c(c2C)CCCO3)c1C(OC(C)(C)C)C(=O)O (stereo not drawn) [Example 44, 2-tert-Butoxy-2-(7-(8-fluoro-5-methylchroman-6-yl)-5-methyl-3-phenylpyrazolo[1,5-a]pyrimidin-6-yl)acetic acid, TFA salt] | 3 µM
Cc1nc2cc(-c3ccccc3)nn2c(-c2ccc3ncccc3c2)c1C(OC(C)(C)C)C(=O)O (stereo not drawn) [Example 50] | 2.4 µM
Cc1nc2cc(-c3cccc(OCc4ccc(Cl)cc4)c3)nn2c(-c2cc(F)c3c(c2C)CCCO3)c1C(OC(C)(C)C)C(=O)O (stereo not drawn) [Example 106, 2-tert-Butoxy-2-(2-(3-(4-chlorobenzyloxy)phenyl)-7-(8-fluoro-5-methylchroman-6-yl)-5-methylpyrazolo[1,5-a]pyrimidin-6-yl)acetic acid, TFA salt] | 0.04 µM
Cc1ccc(F)c(-c2c(C(OC(C)(C)C)C(=O)O)c(C)nc3cc(-c4ccccc4)nn23)c1 (stereo not drawn) [Example 62] | 5 µM
Cc1nc2c(-c3ccc(F)cc3)c(-c3ccccc3)nn2c(-c2cc(F)c3c(c2C)CCCO3)c1C(OC(C)(C)C)C(=O)O (stereo not drawn) [Example 136, 2-(tert-Butoxy)-2-(7-(8-fluoro-5-methylchroman-6-yl)-3-(4-fluorophenyl)-5-methyl-2-phenylpyrazolo[1,5-a]pyrimidin-6-yl)acetic acid] | 1.6 µM
